Test results as given in patent US9637496B2, “Substituted 7-azabicycles and their use as orexin receptor modulators” (priority 2013, dated 2017).
Where two headings read alike, the source gives them in different places.

Experiments:
human orexin 1 receptor = human orexin 1 receptor (Homo sapiens (Human), UniProt O43613); assay: Human orexin 1 receptor radioligand binding (competitive binding, CHO membranes); settings: read-out: hOX1 Ki
human orexin 2 receptor = human orexin 2 receptor (Homo sapiens (Human), UniProt O43614); assay: Human orexin 2 receptor radioligand binding ([3H]-EMPA competition, HEK293 membranes); settings: read-out: hOX2 Ki
rat orexin 1 receptor = rat orexin 1 receptor (Rattus norvegicus (Rat), UniProt P56718); assay: Rat orexin 1 receptor radioligand binding (competitive binding, HEK293 membranes); settings: read-out: rOX1 Ki
[1] = human orexin 2 receptor, Table 2, averages from between 2-20 runs
[2] = human orexin 1 receptor, Table 2, averages from between 2-20 runs
[3] = rat orexin 1 receptor, Table 2, averages from between 2-20 runs
[4] = Table 2, further testing, averages from 2-20 runs

Chain of human orexin 1 receptor (O43613 whole entry): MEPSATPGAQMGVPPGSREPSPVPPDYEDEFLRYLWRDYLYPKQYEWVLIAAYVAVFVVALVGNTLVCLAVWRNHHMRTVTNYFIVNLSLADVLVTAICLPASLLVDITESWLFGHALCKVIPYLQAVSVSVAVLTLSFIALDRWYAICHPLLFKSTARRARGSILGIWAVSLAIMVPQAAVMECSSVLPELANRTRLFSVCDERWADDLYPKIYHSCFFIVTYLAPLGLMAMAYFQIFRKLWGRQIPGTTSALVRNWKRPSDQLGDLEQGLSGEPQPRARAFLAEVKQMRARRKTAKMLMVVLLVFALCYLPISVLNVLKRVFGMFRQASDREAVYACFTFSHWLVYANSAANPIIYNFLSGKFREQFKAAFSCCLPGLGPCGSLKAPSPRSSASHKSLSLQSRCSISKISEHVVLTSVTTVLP
Chain of human orexin 2 receptor (O43614 whole entry): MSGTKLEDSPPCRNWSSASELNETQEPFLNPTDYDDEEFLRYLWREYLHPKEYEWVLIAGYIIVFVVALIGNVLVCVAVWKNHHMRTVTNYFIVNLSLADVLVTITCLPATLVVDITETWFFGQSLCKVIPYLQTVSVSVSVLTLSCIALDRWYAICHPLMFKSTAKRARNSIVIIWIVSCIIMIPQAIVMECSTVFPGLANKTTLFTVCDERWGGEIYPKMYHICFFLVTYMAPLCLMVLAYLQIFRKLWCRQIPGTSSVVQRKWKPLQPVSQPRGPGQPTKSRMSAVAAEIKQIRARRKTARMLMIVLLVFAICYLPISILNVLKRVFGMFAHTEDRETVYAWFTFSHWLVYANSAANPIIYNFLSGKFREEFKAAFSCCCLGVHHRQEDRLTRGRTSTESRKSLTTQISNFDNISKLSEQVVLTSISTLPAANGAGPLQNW
Chain of rat orexin 1 receptor (P56718 whole entry): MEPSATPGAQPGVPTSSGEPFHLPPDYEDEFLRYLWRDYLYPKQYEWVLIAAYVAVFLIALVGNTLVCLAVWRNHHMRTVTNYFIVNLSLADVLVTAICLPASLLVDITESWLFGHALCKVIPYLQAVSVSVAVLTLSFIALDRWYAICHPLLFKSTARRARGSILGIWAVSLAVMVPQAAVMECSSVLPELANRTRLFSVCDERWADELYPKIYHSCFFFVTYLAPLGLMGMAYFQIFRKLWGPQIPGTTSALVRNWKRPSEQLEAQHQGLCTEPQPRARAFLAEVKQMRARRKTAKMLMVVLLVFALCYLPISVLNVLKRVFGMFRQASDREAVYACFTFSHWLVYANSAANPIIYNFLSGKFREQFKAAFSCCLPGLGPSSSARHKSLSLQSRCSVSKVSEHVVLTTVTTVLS

Structure (SMILES) | Ki (human orexin 1 receptor) [nM] | Ki (human orexin 2 receptor; [1]) [nM] | Ki (rat orexin 1 receptor) [nM] | Ki (human orexin 1 receptor; [4]) [nM] | Ki (human orexin 2 receptor; [4]) [nM] | Ki (rat orexin 1 receptor; [4]) [nM] | other results
O=C(c1ccccc1-c1ccccc1)N1[C@@H]2CC[C@H]1[C@H](Nc1cnc(C(F)(F)F)cn1)C2 [Example 407, [1,1′-biphenyl]-2-yl((1S,2R,4R)-2-((5-(trifluoromethyl)pyrazin-2-yl)amino)-7-azabicyclo[2.2.1]heptan-7-yl)methanone] | 17 | 104 | 18 | – | – | – | –
O=C(c1cccc(F)c1-c1ccccn1)N1[C@@H]2CC[C@H]1[C@H](Nc1cnc(C(F)(F)F)cn1)C2 [Example 408, (3-fluoro-2-(pyridin-2-yl)phenyl)((1S,2R,4R)-2-((5-(trifluoromethyl)pyrazin-2-yl)amino)-7-azabicyclo[2.2.1]heptan-7-yl)methanone] | 19 | 150 | 12 | – | – | – | –
O=C(c1cc(F)ccc1-c1ncco1)N1[C@@H]2CC[C@H]1[C@H](Nc1cnc(C(F)(F)F)cn1)C2 [Example 410, (5-fluoro-2-(oxazol-2-yl)phenyl)((1S,2R,4R)-2-((5-(trifluoromethyl)pyrazin-2-yl)amino)-7-azabicyclo[2.2.1]heptan-7-yl)methanone] | 90 | 1000 | 67 | – | – | – | –
O=C(c1c(F)cccc1-c1ncco1)N1[C@@H]2CC[C@H]1[C@H](Nc1cnc(C(F)(F)F)cn1)C2 [Example 411, (2-fluoro-6-(oxazol-2-yl)phenyl)((1S,2R,4R)-2-((5-(trifluoromethyl)pyrazin-2-yl)amino)-7-azabicyclo[2.2.1]heptan-7-yl)methanone] | 31 | 622 | 53 | – | – | – | –
Cc1noc(-c2cc(F)ccc2C(=O)N2[C@@H]3CC[C@H]2[C@H](Nc2cnc(C(F)(F)F)cn2)C3)n1 [Example 412, (4-fluoro-2-(3-methyl-1,2,4-oxadiazol-5-yl)phenyl)((1S,2R,4R)-2-((5-(trifluoromethyl)pyrazin-2-yl)amino)-7-azabicyclo[2.2.1]heptan-7-yl)methanone] | – | 4800 | – | – | – | – | Ki (human orexin 1 receptor; [2]): 329 nM; Ki (rat orexin 1 receptor; [3]): 126 nM
O=C(c1ccc(F)cc1-c1ncccn1)N1[C@@H]2CC[C@H]1[C@H](Nc1ncc(C(F)(F)F)cn1)C2 [Example 414, (4-fluoro-2-(pyrimidin-2-yl)phenyl)((1S,2R,4R)-2-((5-(trifluoromethyl)pyrimidin-2-yl)amino)-7-azabicyclo[2.2.1]heptan-7-yl)methanone] | – | 5800 | – | – | – | – | Ki (human orexin 1 receptor; [2]): 81 nM; Ki (rat orexin 1 receptor; [3]): 160 nM
O=C(c1cc(F)ccc1-c1ncccn1)N1[C@@H]2CC[C@H]1[C@H](Nc1ncc(C(F)(F)F)cn1)C2 [Example 415, (5-fluoro-2-(pyrimidin-2-yl)phenyl)((1S,2R,4R)-2-((5-(trifluoromethyl)pyrimidin-2-yl)amino)-7-azabicyclo[2.2.1]heptan-7-yl)methanone] | 70 | – | – | – | – | – | Ki (human orexin 2 receptor): 2100 nM; Ki (rat orexin 1 receptor; [3]): 102 nM
O=C(c1c(F)cccc1-c1ncccn1)N1[C@@H]2CC[C@H]1[C@H](Nc1ncc(C(F)(F)F)cn1)C2 [Example 416, (2-fluoro-6-(pyrimidin-2-yl)phenyl)((1S,2R,4R)-2-((5-(trifluoromethyl)pyrimidin-2-yl)amino)-7-azabicyclo[2.2.1]heptan-7-yl)methanone] | – | 2100 | – | – | – | – | Ki (human orexin 1 receptor; [2]): 85 nM; Ki (rat orexin 1 receptor; [3]): 138 nM
O=C(c1ccccc1-c1ncccn1)N1[C@@H]2CC[C@H]1[C@H](Nc1ncc(C(F)(F)F)cn1)C2 [Example 417, (2-(pyrimidin-2-yl)phenyl)((1S,2R,4R)-2-((5-(trifluoromethyl)pyrimidin-2-yl)amino)-7-azabicyclo[2.2.1]heptan-7-yl)methanone] | 41 | 1900 | 52 | – | – | – | –
Cc1cnc(C(=O)N2[C@@H]3CC[C@H]2[C@H](Nc2ncc(C(F)(F)F)cc2F)C3)c(-n2nccn2)c1 [Example 420, ((1S,2R,4R)-2-((3-fluoro-5-(trifluoromethyl)pyridin-2-yl)amino)-7-azabicyclo[2.2.1]heptan-7-yl)(5-methyl-3-(2H-1,2,3-triazol-2-yl)pyridin-2-yl)methanone] | – | 884 | – | – | – | – | Ki (human orexin 1 receptor; [2]): 114 nM; Ki (rat orexin 1 receptor; [3]): 100 nM
O=C(c1ccccc1-n1nccn1)N1[C@@H]2CC[C@H]1[C@H](Nc1ncc(C(F)(F)F)cc1F)C2 [Example 448, (2-(2H-1,2,3-triazol-2-yl)phenyl)((1S,2R,4R)-2-((3-fluoro-5-(trifluoromethyl)pyridin-2-yl)amino)-7-azabicyclo[2.2.1]heptan-7-yl)methanone] | – | – | – | 33 | 666 | 41 | –
O=C(c1cccc(F)c1-n1nccn1)N1[C@@H]2CC[C@H]1[C@H](Nc1ncc(C(F)(F)F)cc1F)C2 [Example 449, (3-fluoro-2-(2H-1,2,3-triazol-2-yl)phenyl)((1S,2R,4R)-2-((3-fluoro-5-(trifluoromethyl)pyridin-2-yl)amino)-7-azabicyclo[2.2.1]heptan-7-yl)methanone] | – | – | – | 41 | 873 | 34 | –
Cc1cccc(C(=O)N2[C@@H]3CC[C@H]2[C@H](Nc2ncc(C(F)(F)F)cc2F)C3)c1-n1nccn1 [Example 450, ((1S,2R,4R)-2-((3-fluoro-5-(trifluoromethyl)pyridin-2-yl)amino)-7-azabicyclo[2.2.1]heptan-7-yl)(3-methyl-2-(2H-1,2,3-triazol-2-yl)phenyl)methanone] | – | – | – | 32 | 340 | 14 | –
Cc1ccc(-n2nccn2)c(C(=O)N2[C@@H]3CC[C@H]2[C@H](Nc2ncc(C(F)(F)F)cc2F)C3)n1 [Example 451, ((1S,2R,4R)-2-((3-fluoro-5-(trifluoromethyl)pyridin-2-yl)amino)-7-azabicyclo[2.2.1]heptan-7-yl)(6-methyl-3-(2H-1,2,3-triazol-2-yl)pyridin-2-yl)methanone] | 84 | – | 82 | – | 517 | – | –
Cc1ccc(C(=O)N2[C@@H]3CC[C@H]2[C@H](Nc2ncc(C(F)(F)F)cc2F)C3)c(-n2nccn2)n1 [Example 452, ((1S,2R,4R)-2-((3-fluoro-5-(trifluoromethyl)pyridin-2-yl)amino)-7-azabicyclo[2.2.1]heptan-7-yl)(6-methyl-2-(2H-1,2,3-triazol-2-yl)pyridin-3-yl)methanone] | – | – | – | 223 | 437 | 176 | –
Cc1cnc(-n2nccn2)c(C(=O)N2[C@@H]3CC[C@H]2[C@H](Nc2ncc(C(F)(F)F)cc2F)C3)c1 [Example 453, ((1S,2R,4R)-2-((3-fluoro-5-(trifluoromethyl)pyridin-2-yl)amino)-7-azabicyclo[2.2.1]heptan-7-yl)(5-methyl-2-(2H-1,2,3-triazol-2-yl)pyridin-3-yl)methanone] | – | – | – | 305 | > 10000 | 210 | –
O=C(c1cccc(F)c1-c1ncco1)N1[C@@H]2CC[C@H]1[C@H](Nc1ncc(C(F)(F)F)cc1F)C2 [Example 454, (3-fluoro-2-(oxazol-2-yl)phenyl)((1S,2R,4R)-2-((3-fluoro-5-(trifluoromethyl)pyridin-2-yl)amino)-7-azabicyclo[2.2.1]heptan-7-yl)methanone] | – | – | – | 23 | 590 | 18 | –
Cc1ccc(-c2ncccn2)c(C(=O)N2[C@@H]3CC[C@H]2[C@H](Nc2ncc(C(F)(F)F)cc2F)C3)n1 [Example 456, ((1S,2R,4R)-2-((3-fluoro-5-(trifluoromethyl)pyridin-2-yl)amino)-7-azabicyclo[2.2.1]heptan-7-yl)(6-methyl-3-(pyrimidin-2-yl)pyridin-2-yl)methanone] | 48 | – | 68 | – | 454 | – | –
